Measurements: ChEMBL document CHEMBL1140941 (J Med Chem, 2009)
The source made the active and inactive calls. No cut-off for these calls is given here.

Legend:
[1] = Oral bioavailability in CD rat at 3 mg/kg; format: ADME, organism-based; settings: in vivo
Mus musculus [2] = experiment: Reduction of plasma total cholesterol level in C57BL/6 mouse at 10 mg/kg, po administered for 7 days measured after 3 hrs; format: ADME, organism-based; design: dose 10 mg/kg, route oral; settings: in vivo
[3] = biological target: T1, Mineralocorticoid receptor (Homo sapiens) (UniProt P08235); experiment: Antagonist activity at gal-MR expressed in african green monkey CV1 cells co-expressing MH100 at 10 uM by luciferase reporter gene assay; format: functional, cell-based; settings: CV-1
T1 sequence (whole entry): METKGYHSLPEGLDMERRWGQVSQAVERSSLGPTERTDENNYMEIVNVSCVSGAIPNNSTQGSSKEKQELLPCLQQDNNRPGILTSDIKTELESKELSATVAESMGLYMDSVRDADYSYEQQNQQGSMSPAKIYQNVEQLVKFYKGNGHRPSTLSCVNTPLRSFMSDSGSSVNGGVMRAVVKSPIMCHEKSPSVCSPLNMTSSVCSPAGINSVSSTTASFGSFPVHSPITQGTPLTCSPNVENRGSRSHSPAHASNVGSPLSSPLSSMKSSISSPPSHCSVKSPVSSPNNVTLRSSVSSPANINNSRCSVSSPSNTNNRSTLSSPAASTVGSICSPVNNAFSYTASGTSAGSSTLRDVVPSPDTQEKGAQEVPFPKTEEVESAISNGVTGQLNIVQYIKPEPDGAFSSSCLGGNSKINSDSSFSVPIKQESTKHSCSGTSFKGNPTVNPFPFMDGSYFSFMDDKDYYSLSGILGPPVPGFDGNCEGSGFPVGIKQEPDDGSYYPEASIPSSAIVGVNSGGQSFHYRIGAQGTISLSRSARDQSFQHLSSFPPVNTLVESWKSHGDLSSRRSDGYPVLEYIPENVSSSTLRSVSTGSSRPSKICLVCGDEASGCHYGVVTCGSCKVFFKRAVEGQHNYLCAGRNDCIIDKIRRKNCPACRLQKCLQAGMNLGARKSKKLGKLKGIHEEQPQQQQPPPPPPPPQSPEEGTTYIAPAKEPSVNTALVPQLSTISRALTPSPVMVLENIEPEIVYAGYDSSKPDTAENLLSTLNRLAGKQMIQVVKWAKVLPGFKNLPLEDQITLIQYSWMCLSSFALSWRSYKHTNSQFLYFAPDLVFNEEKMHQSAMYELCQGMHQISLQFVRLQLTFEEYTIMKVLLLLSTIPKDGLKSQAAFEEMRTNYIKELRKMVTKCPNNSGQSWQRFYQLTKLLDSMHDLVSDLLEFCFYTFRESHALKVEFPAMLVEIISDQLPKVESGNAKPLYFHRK

[4] = biological target: T2, Peroxisome proliferator-activated receptor alpha (Homo sapiens) (UniProt Q07869); experiment: Antagonist activity at PPARalpha expressed in african green monkey CV1 cells co-expressing MH100 by luciferase reporter gene assay; format: functional, cell-based; settings: CV-1
T2 sequence (whole entry): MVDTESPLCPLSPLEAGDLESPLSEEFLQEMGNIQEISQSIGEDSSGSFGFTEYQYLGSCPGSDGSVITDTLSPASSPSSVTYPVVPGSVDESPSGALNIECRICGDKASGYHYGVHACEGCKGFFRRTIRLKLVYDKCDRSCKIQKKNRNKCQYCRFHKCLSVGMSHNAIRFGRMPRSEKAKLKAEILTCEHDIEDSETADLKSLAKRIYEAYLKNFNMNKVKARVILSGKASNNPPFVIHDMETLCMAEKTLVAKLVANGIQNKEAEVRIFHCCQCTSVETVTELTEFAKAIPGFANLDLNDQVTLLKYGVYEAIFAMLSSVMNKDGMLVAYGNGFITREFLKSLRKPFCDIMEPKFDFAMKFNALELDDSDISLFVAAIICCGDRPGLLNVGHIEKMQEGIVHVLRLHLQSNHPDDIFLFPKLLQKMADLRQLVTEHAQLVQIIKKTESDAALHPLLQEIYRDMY

[5] = Tmax in CD rat at 3 mg/kg, po; format: ADME, organism-based; design: dose 3 mg/kg, route oral; settings: in vivo
Mus musculus [6] = experiment: Reduction of plasma total cholesterol level in western diet-induced hyperlipidemia LDLR knockout mouse model at 3 mg/kg, po administered for 6 weeks; format: functional; design: scale not given: the % may be the effect or the level left
[7] = biological target: Vitamin D3 receptor (Homo sapiens) (UniProt P11473); experiment: Agonist activity at VP16-VDR expressed in african green monkey CV1 cells co-expressing MH100 by luciferase reporter gene assay; format: functional, cell-based; settings: CV-1
Chain of Vitamin D3 receptor (Homo sapiens) (P11473 whole entry): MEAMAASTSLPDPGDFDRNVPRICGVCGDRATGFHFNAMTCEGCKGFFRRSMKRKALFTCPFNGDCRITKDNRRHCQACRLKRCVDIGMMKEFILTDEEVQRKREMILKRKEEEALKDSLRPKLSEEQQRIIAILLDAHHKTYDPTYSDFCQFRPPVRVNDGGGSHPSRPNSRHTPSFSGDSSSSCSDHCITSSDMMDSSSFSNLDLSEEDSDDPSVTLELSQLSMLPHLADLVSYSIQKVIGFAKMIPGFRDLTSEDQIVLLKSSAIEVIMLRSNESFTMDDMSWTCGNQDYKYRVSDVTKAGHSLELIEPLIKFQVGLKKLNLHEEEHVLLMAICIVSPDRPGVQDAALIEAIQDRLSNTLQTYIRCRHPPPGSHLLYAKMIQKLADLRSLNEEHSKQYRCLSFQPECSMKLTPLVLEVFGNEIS

[8] = biological target: T3, Peroxisome proliferator-activated receptor gamma (Homo sapiens) (UniProt P37231); experiment: Antagonist activity at PPARgamma expressed in african green monkey CV1 cells co-expressing PPRE by luciferase reporter gene assay; format: functional, cell-based; settings: CV-1
T3 sequence (whole entry): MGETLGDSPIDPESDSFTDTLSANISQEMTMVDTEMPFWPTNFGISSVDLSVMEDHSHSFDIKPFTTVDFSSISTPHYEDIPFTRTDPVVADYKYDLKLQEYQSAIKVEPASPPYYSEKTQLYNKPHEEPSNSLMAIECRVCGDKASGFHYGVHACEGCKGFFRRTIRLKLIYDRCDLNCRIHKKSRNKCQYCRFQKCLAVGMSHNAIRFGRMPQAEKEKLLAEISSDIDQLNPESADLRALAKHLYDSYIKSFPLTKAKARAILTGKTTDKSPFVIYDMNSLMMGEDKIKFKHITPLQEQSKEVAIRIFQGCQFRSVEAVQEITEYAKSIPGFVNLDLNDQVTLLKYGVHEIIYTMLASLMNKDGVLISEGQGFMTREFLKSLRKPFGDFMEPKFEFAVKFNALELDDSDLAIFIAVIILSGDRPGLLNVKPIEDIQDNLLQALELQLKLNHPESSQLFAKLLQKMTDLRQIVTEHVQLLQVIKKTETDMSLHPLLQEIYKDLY

[9] = Volume of distribution in CD rat at 3 mg/kg, iv; format: ADME, organism-based; design: dose 3 mg/kg, route intravenous; settings: in vivo, read-out: Vdss

In the case of `CC(C)OC(=O)C1=CN(C(=O)c2ccc(F)c(F)c2)CC(C)(C)c2c1[nH]c1ccccc21` [TUROFEXORATE ISOPROPYL], the bioavailability [1] is reported as 37.6%, the Activity (Mus musculus [2]) is reported as 78.1 mg/dL and the inhibition [3] is reported as 27%. The Activity [4] was “inactive”, the Tmax [5] was 10 h and the Activity (Mus musculus [6]) was 50%. The Activity [7] was “inactive”, the Activity [8] was “inactive” and the Vd [9] was 3.3 L/kg.
